The source made the active and inactive calls. The rule behind the calls is not given here.

The test deals with SNU-387. Nature of the test: Synergistic antiproliferative activity against human SNU-387 cells at 200 nM measured after 5 days in presence of navitoclax by crystal violet staining based assay. Format: functional, cell-based. To be noted: time 5.0 day.

Turning to `C=CC(=O)Nc1cc(N2CCN(C)CC2)ccc1Nc1ncc2c(n1)-n1ccc(C(=O)Nc3c(CC)cccc3CC)c1CC2`, the result was Active.

Values taken from ChEMBL document CHEMBL5038669, “Development of the First Covalent Monopolar Spindle Kinase 1 (MPS1/TTK) Inhibitor” (J Med Chem, 2022).
